Like-named read-outs stand apart in the source and are kept apart here.
Experiments:
[1] = system: SBDP; assay: SBDP formation in IPL after acute IOP elevation, intravitreal C2l in calpain-1 KO mice; type: in vivo; details: Mus musculus, intravitreal (1 μl) 2 h after IOP elevation, SBDP at 4 h, read-out: apparent IC50, inhibition of SBDP formation in IPL
Description: We used intravitreal C2l injection in order to locally deliver C2l to retina. First, we tested the delivery efficiency by injecting different doses of C2l intravitreally 2 h after IOP elevation in calpain-1 KO mice and analyzing SBDP levels in IPL at 4 h (FIG. 12A and B). […] In all subsequent experiments, 20 μM (1 μl) was used to examine the neuroprotective effects of intravitreal C2l injection. Eyes were collected 3 days after surgery for H&E staining.

[2] = target: T1, calpain-1 (Homo sapiens, UniProt P07384); assay: in vitro calpain-1 inhibition, succinic-Leu-Tyr-AMC substrate; type: biochemical
T1 sequence (P07384 1-714): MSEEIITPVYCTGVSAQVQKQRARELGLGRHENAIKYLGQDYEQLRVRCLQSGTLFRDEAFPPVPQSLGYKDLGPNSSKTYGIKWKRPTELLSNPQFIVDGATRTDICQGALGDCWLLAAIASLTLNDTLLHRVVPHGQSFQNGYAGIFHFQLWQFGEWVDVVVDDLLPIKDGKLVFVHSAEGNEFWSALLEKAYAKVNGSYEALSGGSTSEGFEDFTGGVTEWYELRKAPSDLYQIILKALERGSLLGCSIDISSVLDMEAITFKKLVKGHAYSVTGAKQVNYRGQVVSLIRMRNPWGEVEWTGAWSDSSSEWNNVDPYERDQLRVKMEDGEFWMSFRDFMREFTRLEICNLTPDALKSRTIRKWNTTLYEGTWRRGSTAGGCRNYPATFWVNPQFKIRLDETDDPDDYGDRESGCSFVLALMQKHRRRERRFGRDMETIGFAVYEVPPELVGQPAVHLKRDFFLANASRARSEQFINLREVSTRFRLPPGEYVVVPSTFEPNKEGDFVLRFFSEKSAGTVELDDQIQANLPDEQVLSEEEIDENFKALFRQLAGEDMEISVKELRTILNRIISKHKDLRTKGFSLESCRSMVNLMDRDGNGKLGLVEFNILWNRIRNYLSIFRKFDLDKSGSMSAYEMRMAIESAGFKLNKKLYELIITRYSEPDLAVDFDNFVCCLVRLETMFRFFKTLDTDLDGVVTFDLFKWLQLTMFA
T1 sequence (P04632 1-268 partner): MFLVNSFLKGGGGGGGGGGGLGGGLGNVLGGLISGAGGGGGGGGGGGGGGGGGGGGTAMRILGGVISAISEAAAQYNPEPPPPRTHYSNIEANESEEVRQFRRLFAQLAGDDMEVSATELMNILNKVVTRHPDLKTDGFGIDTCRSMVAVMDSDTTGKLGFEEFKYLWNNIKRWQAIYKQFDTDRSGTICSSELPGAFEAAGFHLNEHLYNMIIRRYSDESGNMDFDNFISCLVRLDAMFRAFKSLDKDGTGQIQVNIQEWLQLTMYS
Description: Formula 1, where chiral center 1 is the L-form and chiral center 2 is a racemic mixture of D- and L- in this example was introduced at various concentrations (from 1 nM to 10 μM) into an in vitro mix comprising succinic-Leu-Tyr-AMC and calpain-1 or calpain-2 (Sasaki et al, 1984), and the kinetics of the loss of fluorescence were determined for each of the calpains (Powers et al, 2000). […] Therefore, the assessment of selectivity described herein was different than the prior teaching.
Formula 1A, where chiral center 1 is the S-form and chiral center 2 is the S-form was separated from the S-R-form (Formula 1B) using methods that are well-known methods for separating diastereoisomers. Formula 1A, which is also referred to herein as compound 18A, in this example was introduced at various concentrations into an in vitro mix comprising succinic-Leu-Tyr-AMC and μ-calpain or m-calpain (Sasaki et al, 1984), and the kinetics of the loss of fluorescence were determined for each of the calpains.

[3] = system: stratum radiatum of field CA1 in acute rat hippocampal slices; assay: field EPSP recording, TBS-induced LTP in acute rat hippocampal slices; type: cell-based; details: for LTP after theta-burst stimulation: 200 nM, preincubation prior to TBS
Description: Results are expressed as percent of the average values over a 10 min baseline period and are means±S.E.M. of the indicated number of experiments.
FIG. 3A: Field recording of excitatory postsynaptic potentials (EPSPs) performed in stratum radiatum of field CA1 in acute rat hippocampal slices in the presence or absence of 200 nM of the calpain-2 selective inhibitor, Formula I, (mCalp-I in the drawing). Preincubation with mCalp-I enhances LTP. Results are expressed as percent of the average values over a 10 min baseline period and are means±S.E.M. of the indicated number of experiments.
Results are expressed as percent of the average values over the 10 min baseline period and are means±S.E.M. of the indicated number of experiments.
Generic calpain inhibitors block LTP when administered before LTP induction. Field recording of excitatory postsynaptic potentials (EPSPs; FIG. 2) was performed in stratum radiatum of field CA1 in acute rat hippocampal slices.
A calpain 2-selective inhibitor enhances LTP. […]

[4] = target: T1, calpain-1; details: Li et al, 1996; read-out: Ki for calpain-1 (μ-calpain), literature; cited from earlier work

## CCC(NC(=O)C(CC(C)C)NC(=O)OCc1ccccc1)C(=O)C(=O)NCc1cc(OC)cc(OC)c1 (racemic) [Formula 1, Z-Leu-Abu-CONH—CH2-C6H3 (3, 5-(OMe)2)]
[1]
  IC50: 8 µM
[2]; Example 1, chiral center 2 racemic, read-out: Ki of calpain-1, re-determined herein
  Ki: 1.29 µM
[2]; Example 13, n = 3-5, read-out: Ki Calpain-1
  Ki: 0.662 µM
[2]; earlier value, unit inferred, read-out: Previous Value (Calpain-1)
  Ki: 0.94 µM
[2]; n = 3-5
  IC50: 0.91 µM
[3]
  LTP after theta-burst stimulation: enhances it
[3]; listed as mCalp-I
  LTP after theta-burst stimulation: enhances LTP
[3]; applied from 10 min post TBS to 1 hour post TBS
  LTP during the consolidation phase: enhanced LTP
[4]
  Ki: 2.3 µM

Reference: US20190030114A1, “ISOFORM-SPECIFIC CALPAIN INHIBITORS, METHODS OF IDENTIFICATION, AND USES THEREOF” (WESTERN UNIVERSITY OF HEALTH SCIENCES, priority 2014, published 2019)
